Experimental data from US20230087118A1, “IMIDAZO[1,2-a][sequence] DERIVATIVES AND THEIR USE IN THE TREATMENT OF DISEASE” (priority 2019, published 2023).
Where a name gives a salt, the structure may show the parent alone. Read-outs that look alike come from different tables or passages of the source.

Biological target: T1, IRAK4 (Homo sapiens, UniProt Q9NWZ3)
T1 sequence (Q9NWZ3 1-460): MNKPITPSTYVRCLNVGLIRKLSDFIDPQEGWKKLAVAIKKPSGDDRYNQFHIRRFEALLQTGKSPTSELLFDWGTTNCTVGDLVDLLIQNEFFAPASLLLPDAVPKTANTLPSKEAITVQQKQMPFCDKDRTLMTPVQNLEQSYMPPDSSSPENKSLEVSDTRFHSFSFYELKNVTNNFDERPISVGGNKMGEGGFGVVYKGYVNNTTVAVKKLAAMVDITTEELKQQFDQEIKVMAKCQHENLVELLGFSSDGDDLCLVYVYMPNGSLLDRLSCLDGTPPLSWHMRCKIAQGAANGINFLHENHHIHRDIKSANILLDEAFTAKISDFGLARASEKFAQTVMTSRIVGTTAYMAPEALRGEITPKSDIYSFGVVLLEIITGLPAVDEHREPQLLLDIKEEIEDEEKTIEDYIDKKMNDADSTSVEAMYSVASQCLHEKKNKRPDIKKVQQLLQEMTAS
Assay: biochemical

[1] = IRAK4 Biochemical Assay (1 mM ATP, 2 h) IC50 (μM), 1 mM ATP, 2 h, 100 pM IRAK4

SMILES | IC50 [1] [µM] | IC50 [µM]
CC(C)Oc1cc2nc(C3CCOCC3)cn2cc1C(=O)Nc1cccc(C(F)F)n1 [Example 92, N-(6-(difluoromethyl)pyridin-2-yl)-7-isopropoxy-2-(tetrahydro-2H-pyran-4-yl)imidazo[1,2-a]pyridine-6-carboxamide] | 0.0003 | –
CCc1cccc(NC(=O)c2cn3cc(C4CC5(CCOC5)C4)nc3cc2OC)n1 (centres unmarked) [Example 62] | 0.0038 | –
COc1cc2nc(C3CCOCC3)cn2cc1C(=O)Nc1cscc1Cl [Example 111] | – | 0.0198
Cc1cnc2c(NC(=O)c3cn4cc(C5CC5)nc4cc3OC(C)C)cnn2c1 [Example 280, 2-Cyclopropyl-7-isopropoxy-N-(6-methylpyrazolo[1,5-a]pyrimidin-3-yl)imidazo[1,2-a]pyridine-6-carboxamide trifluoroacetate] | 0.0019 | –
CCc1ncsc1NC(=O)c1cn2cc(C3CCOCC3)nc2cc1OC [Example 104] | – | 0.0476
CCn1cccc(NC(=O)c2cn3cc(C4CCOCC4)nc3cc2OC)c1=O [Example 185] | – | 0.0434
COc1cc2nc(C3CCOCC3)cn2cc1C(=O)Nc1cccc(CO)n1 [Example 202] | – | 0.0137
O=C(Nc1cccn(C(F)F)c1=O)c1cn2cc(C3CC3)nc2cc1OC1CC(C(F)F)C1 (centres unmarked) [Example 461, 2-Cyclopropyl-N-(1-(difluoromethyl)-2-oxo-1,2-dihydropyridin-3-yl)-7-(3-(difluoromethyl)cyclobutoxy)imidazo[1,2-a]pyridine-6-carboxamide] | 0.0072 | –

Continued, values first:

IC50 [1] [µM] | IC50 [µM] | SMILES
0.0088 | – | CC1(COc2cc3nc(C4CC4)cn3cc2C(=O)Nc2cccc(C(F)F)n2)CCOC1 (centres unmarked) [Example 475, 2-Cyclopropyl-N-(6-(difluoromethyl)pyridin-2-yl)-7-((3-methyltetrahydrofuran-3-yl)methoxy)imidazo[1,2-a]pyridine-6-carboxamide]
– | 0.0034 | CC12CC(c3cn4cc(C(=O)Nc5cccc(C(F)F)n5)nc(OCC(F)F)c4n3)(CO1)C2 [Example 344, 8-(2,2-Difluoroethoxy)-N-(6-(difluoromethyl)pyridin-2-yl)-2-(1-methyl-2-oxabicyclo[2.1.1]hexan-4-yl)imidazo[1,2-a]pyrazine-6-carboxamide]
– | 0.009 | CCOc1nc(C(=O)Nc2cccc(F)c2Cl)cn2cc(C34COC(C)(C3)C4)nc12 [Example 485, N-(2-chloro-3-fluorophenyl)-8-ethoxy-2-(1-methyl-2-oxabicyclo[2.1.1]hexan-4-yl)imidazo[1,2-a]pyrazine-6-carboxamide]
– | 0.0023 | Cn1ccc(NC(=O)c2cn3cc([C@@]45CC[C@@](C)(C4)OC5)nc3cc2OC2CCCC2)n1 (single isomer, unassigned) [Example 634]
– | 0.0009 | CC(C)Oc1nc2nc(C34COC(C)(C3)C4)cn2cc1C(=O)Nc1cccc(C2CC2)n1 [Example 387, N-(6-cyclopropylpyridin-2-yl)-7-isopropoxy-2-(1-methyl-2-oxabicyclo[2.1.1]hexan-4-yl)imidazo[1,2-a]pyrimidine-6-carboxamide]
– | 0.0007 | CC(C)Oc1nc2nc(C34COC(C)(C3)C4)cn2cc1C(=O)Nc1cnn2cccc(F)c12 [Example 408, N-(4-fluoropyrazolo[1,5-a]pyridin-3-yl)-7-isopropoxy-2-(1-methyl-2-oxabicyclo[2.1.1]hexan-4-yl)imidazo[1,2-a]pyrimidine-6-carboxamide]
– | 0.0009 | Cc1cnc2c(NC(=O)c3cn4cc(C56COC(C)(C5)C6)nc4cc3O[C@H](C)C3CC3)cnn2c1 (single isomer, unassigned) [Example 657]
– | 0.0002 | CC(C)Oc1cc2nc(C34CCC(C)(C3)OC4)cn2cc1C(=O)Nc1cnn2cccnc12 (centres unmarked) [Example 417, 7-Isopropoxy-2-(1-methyl-2-oxabicyclo[2.2.1]heptan-4-yl)-N-(pyrazolo[1,5-a]pyrimidin-3-yl)imidazo[1,2-a]pyridine-6-carboxamide]
– | 0.0006 | Cc1cnc2c(NC(=O)c3cn4cc(C56COC(C)(C5)C6)nc4cc3O[C@@H](C)C3CC3)cnn2c1 (single isomer, unassigned) [Example 658]
